Source: patent US6410575B1, “Viral treatment” (The Procter & Gamble Company, priority 1999, dated 2002)
Converted amounts (≈) assume the structure as drawn.

Key:
[1] = system: HSV-2MS; assay: Herpes simplex testing in vero cells; format: cell-based, herpes simplex virus -2; conditions: HSV-2MS in vero cells
[2] = Toxicity values in the HHV8 test; format: cell-based; conditions: human, TPA-induced BCBL-1 cells; read-out: TC50 (the source's name)
Method: (§1) Toxicity quantification involves the XTT-based evaluation. Assays were designed to characterize the long term effects of the compounds on virus production and to characterize the longer term effects of the compounds on virus production from chronically HIV infected cells.
(§2) The DNA copy number and the toxicity value were measured and compared with Cidofovir. Kaposi's sarcoma (KS) is a cancer that is often found in people with weak immune systems, such as those taking immunosuppressants or those with AIDS. The exact nature of the disease is uncertain, but it is almost always found in association with HHV8.

[3] = system: TPA-induced BCBL-1 cells; assay: Toxicity values in the HHV8 test; format: cell-based
Method: as §1, §2

[4] = system: HIV-2 cell line, CEMROD; assay: Long term in vitro study, CEMROD; format: cell-based
Method: as §1
(§3) CEM-SS cells chronically infected with HIV isolate, for example SKI (CEM-SKI) are cultured in RPMI1640 tissue culture medium supplemented with 10% fetal bovine serum and antibiotics. […] CEM-SKI or other infected cells with no added drug are used as the control cells.
(§4) Cells are allowed to grow to a density of approximately 1×10^6 cells/ml and are then passaged at a 1:10 dilution. […] The drug concentration in the flask is then increased two-fold and the cells maintained as above.
(§5) The cell populations contain integrated copies of the HIV genome and constitutively produce HIV at relatively high levels or are latently infected and only produce virus after stimulation with phorbol esters, tumor necrosis factor or IL6(U1 and ACH2). Reductions in virus products were observed when quantifying supernatant reverse transcriptase activity.
The results with CEMROD cells was reported at weekly intervals.
The CEMROD cell line is a viral strain of the CEMSS cell line.

[5] = system: HIV-1 cell line, U937IIIB; assay: Long term in vitro study, U937IIIB; format: cell-based
Method: as §1, §3, §4, §5
The results with U937IIIB cells were reported at weekly intervals.
The U937IIIB cell line is viral strain of the U937 cell line.

[6] = system: U937JE225R, a protease resistant strain; assay: Long term in vitro study, U937JE225R; format: cell-based, HIV
Method: as §1, §3, §4, §5
The results with U937JE225R cells was reported at weekly intervals.

[7] = system: Curvularia lunata; assay: Anti-fungal activity, MIC (NCCLS M-27A based); format: cell-based
Method: It was active against Cryptococcus neoformans and Curvularia lunata. The cidal activity for the C. neoformans is high enough that it is clear […] against this yeast. This test was conducted using a method based upon NCCLS reference method M-27A published in 1997. Solvent, medium and growth controls were set-up with the tests. Once these were read to validate the test performance, the QC fungi were read to insure they had expected results. These steps validated the test system. DMSO was used as a drug-chemical solvent. […] The 90% cut-off is necessary for azoles, which are static and not cidal. The […] or cidal level, was determined by sub-culturing a sample from each tube showing no growth.

Structure (SMILES): NC(=S)Nc1nsc(-c2ccccc2)n1
- TI or therapeutic index [1]: > 1.3
- CC50 [2]: 100 µM
- % cell control ([3]; 0.64 μM): 114.3%
- % cell control ([3]; 2 μM): 114.9%
- % cell control ([3]; 6.4 μM): 104.6%
- % cell control ([3]; 20 μM): 114.8%
- % cell control ([3]; 64 μM): 59.7%
- % cell control ([3]; 200 μM): 23.4%
- virus production (supernatant reverse transcriptase activity) ([4]; 7 μg/ml, day 4): 6593
- virus production (supernatant reverse transcriptase activity) ([4]; 7 μg/ml, day 11): 8676
- virus production (supernatant reverse transcriptase activity) ([4]; 7 μg/ml, day 18): 10912
- virus production (supernatant reverse transcriptase activity) ([4]; 7 μg/ml, day 25): 9356
- virus production (supernatant reverse transcriptase activity) ([4]; 7 μg/ml, day 32): 8803
- virus production (supernatant reverse transcriptase activity) ([4]; 7 μg/ml, day 39): 6655
- virus production (supernatant reverse transcriptase activity) ([4]; 7 μg/ml, day 46): 8280
- virus production (supernatant reverse transcriptase activity) ([4]; 7 μg/ml, day 53): 7549
- virus production (supernatant reverse transcriptase activity) ([4]; 15 μg/ml, day 4): 6815
- virus production (supernatant reverse transcriptase activity) ([4]; 15 μg/ml, day 11): 8202
- virus production (supernatant reverse transcriptase activity) ([4]; 15 μg/ml, day 18): 10389
- virus production (supernatant reverse transcriptase activity) ([4]; 15 μg/ml, day 25): 7816
- virus production (supernatant reverse transcriptase activity) ([4]; 15 μg/ml, day 32): 6672
- virus production (supernatant reverse transcriptase activity) ([4]; 15 μg/ml, day 39): 7087
- virus production (supernatant reverse transcriptase activity) ([4]; 15 μg/ml, day 46): 6457
- virus production (supernatant reverse transcriptase activity) ([4]; 15 μg/ml, day 53): 6544
- virus production (supernatant reverse transcriptase activity) ([4]; 30 μg/ml, day 4): 6626
- virus production (supernatant reverse transcriptase activity) ([4]; 30 μg/ml, day 11): 6582
- virus production (supernatant reverse transcriptase activity) ([4]; 30 μg/ml, day 18): 7494
- virus production (supernatant reverse transcriptase activity) ([4]; 30 μg/ml, day 25): 4421
- virus production (supernatant reverse transcriptase activity) ([4]; 30 μg/ml, day 32): 4056
- virus production (supernatant reverse transcriptase activity) ([4]; 30 μg/ml, day 39): 2118
- virus production (supernatant reverse transcriptase activity) ([4]; 30 μg/ml, day 46): 4117
- virus production (supernatant reverse transcriptase activity) ([4]; 30 μg/ml, day 53): 4779
- virus production (supernatant reverse transcriptase activity) ([5]; 7 μg/ml, day 4): 9368
- virus production (supernatant reverse transcriptase activity) ([5]; 7 μg/ml, day 11): 8889
- virus production (supernatant reverse transcriptase activity) ([5]; 7 μg/ml, day 18): 7566
- virus production (supernatant reverse transcriptase activity) ([5]; 7 μg/ml, day 25): 5781
- virus production (supernatant reverse transcriptase activity) ([5]; 7 μg/ml, day 32): 3414
- virus production (supernatant reverse transcriptase activity) ([5]; 7 μg/ml, day 39): 5346
- virus production (supernatant reverse transcriptase activity) ([5]; 7 μg/ml, day 46): 4085
- virus production (supernatant reverse transcriptase activity) ([5]; 7 μg/ml, day 53): 4832
- virus production (supernatant reverse transcriptase activity) ([5]; 15 μg/ml, day 4): 9710
- virus production (supernatant reverse transcriptase activity) ([5]; 15 μg/ml, day 11): 8025
- virus production (supernatant reverse transcriptase activity) ([5]; 15 μg/ml, day 18): 5435
- virus production (supernatant reverse transcriptase activity) ([5]; 15 μg/ml, day 25): 6064
- virus production (supernatant reverse transcriptase activity) ([5]; 15 μg/ml, day 32): 2479
- virus production (supernatant reverse transcriptase activity) ([5]; 15 μg/ml, day 39): 4377
- virus production (supernatant reverse transcriptase activity) ([5]; 15 μg/ml, day 46): 3867
- virus production (supernatant reverse transcriptase activity) ([5]; 15 μg/ml, day 53): 3510
- virus production (supernatant reverse transcriptase activity) ([5]; 30 μg/ml, day 4): 9549
- virus production (supernatant reverse transcriptase activity) ([5]; 30 μg/ml, day 11): 7639
- virus production (supernatant reverse transcriptase activity) ([5]; 30 μg/ml, day 18): 3551
- virus production (supernatant reverse transcriptase activity) ([5]; 30 μg/ml, day 25): 4611
- virus production (supernatant reverse transcriptase activity) ([5]; 30 μg/ml, day 32): 1855
- virus production (supernatant reverse transcriptase activity) ([5]; 30 μg/ml, day 39): 2410
- virus production (supernatant reverse transcriptase activity) ([5]; 30 μg/ml, day 46): 1550
- virus production (supernatant reverse transcriptase activity) ([5]; 30 μg/ml, day 53): 1819
- virus production (supernatant reverse transcriptase activity) ([6]; 7 μg/ml, day 4): 12165
- virus production (supernatant reverse transcriptase activity) ([6]; 7 μg/ml, day 11): 9465
- virus production (supernatant reverse transcriptase activity) ([6]; 7 μg/ml, day 18): 10341
- virus production (supernatant reverse transcriptase activity) ([6]; 7 μg/ml, day 25): 9079
- virus production (supernatant reverse transcriptase activity) ([6]; 7 μg/ml, day 32): 6797
- virus production (supernatant reverse transcriptase activity) ([6]; 7 μg/ml, day 39): 9792
- virus production (supernatant reverse transcriptase activity) ([6]; 7 μg/ml, day 46): 9915
- virus production (supernatant reverse transcriptase activity) ([6]; 7 μg/ml, day 53): 1094
- virus production (supernatant reverse transcriptase activity) ([6]; 15 μg/ml, day 4): 11151
- virus production (supernatant reverse transcriptase activity) ([6]; 15 μg/ml, day 11): 9935
- virus production (supernatant reverse transcriptase activity) ([6]; 15 μg/ml, day 18): 9738
- virus production (supernatant reverse transcriptase activity) ([6]; 15 μg/ml, day 25): 7104
- virus production (supernatant reverse transcriptase activity) ([6]; 15 μg/ml, day 32): 6426
- virus production (supernatant reverse transcriptase activity) ([6]; 15 μg/ml, day 39): 10618
- virus production (supernatant reverse transcriptase activity) ([6]; 15 μg/ml, day 46): 10471
- virus production (supernatant reverse transcriptase activity) ([6]; 15 μg/ml, day 53): 9756
- virus production (supernatant reverse transcriptase activity) ([6]; 30 μg/ml, day 4): 12033
- virus production (supernatant reverse transcriptase activity) ([6]; 30 μg/ml, day 11): 9859
- virus production (supernatant reverse transcriptase activity) ([6]; 30 μg/ml, day 18): 11874
- virus production (supernatant reverse transcriptase activity) ([6]; 30 μg/ml, day 25): 5281
- virus production (supernatant reverse transcriptase activity) ([6]; 30 μg/ml, day 32): 4154
- virus production (supernatant reverse transcriptase activity) ([6]; 30 μg/ml, day 39): 5379
- virus production (supernatant reverse transcriptase activity) ([6]; 30 μg/ml, day 46): 5239
- virus production (supernatant reverse transcriptase activity) ([6]; 30 μg/ml, day 53): 4423
- anti-fungal activity in vitro [7]: active
- MIC ([7]; growth inhibited or reduced at least 90%, read-out: MIC): 0.03 µg/mL (≈ 0.127 µM)
